Source: patent US20030133918A1, “Methods for ex vivo propagation of somatic stem cells” (priority 2001, published 2003)

Experiments:
Xs-D lines = assay: Albumin induction in adherent culture under conditions of quiescence; assay type: cell-based, rat; details: added to standard quiescence-induction protocol (confluency, 1% serum)
Text: In vivo, cell differentiation in somatic tissues has two important cell kinetics features. First, it occurs after a fixed number of cell divisions from the stem cell stage; and second, cells undergo a cell kinetics arrest before terminal differentiation occurs (Potten and Morris, 1988). Ideally, we wanted to mimic this process in culture with cells dividing with asymmetric stem cell kinetics. However, there was concern whether in vitro asymmetric divisions would be in appropriate balance with non-dividing cells. So, we decided to augment the growth arrest by growing cells to confluency in either Xs-free or Xs-containing medium and then inducing a total quiescent state by reducing the serum concentration to 1%. Many in vitro cell models have been described that undergo differentiation upon serum reduction.
The most dramatic differentiation result obtained in the adherent culture studies was the induction of albumin expression in Xs-D lines under conditions of quiescence (See example in FIG. 4). […] Three other treatments were added to the standard quiescence-induction protocol to evaluate their effect on albumin induction. These were DMSO to mimic glucocorticoid effects, growth on collagen as a form of extracellular matrix, and glucose-removal as noted above for its differentiation effects on gastrointestinal cell lines. […]

[1] = test system: p53-inducible model cells; details: published studies (Sherley, 1991); cited from earlier work
[2] = test system: freshly harvested murine bone marrow cells; assay: Bone marrow colony formation in soft agar (fresh bone marrow); assay type: cell-based; details: fresh bone marrow cells; type I, II, III colonies
Description: The following numbers of freshly harvested murine bone marrow cells were plated in soft agar in replicates of 6 in 6-well plates: 1×10^5, 5×10^5, or 1×10^6. After 1-3 weeks, type I, II, and III colonies (see FIG. 2 for examples) were enumerated by phase microscopy.
Because of the difficulties anticipated in cloning Xs-dependent cells from heterogenous long-term bone marrow cultures, we decided to adopt a soft agar culture strategy. It is well known that hematopoietic progenitor cells will form colonies when grown in semi-solid medium (Dexter et al., 1984). […] In many bone marrow cell studies, conditions are selected to induce bone marrow cell differentiation. Methyl-cellulose or soft agar supplemented with lineage-promoting growth factors are widely used experimental systems (Dexter et al., 1984). For ideal SACK, we wished to minimize stimuli for differentiation. Therefore, we used agar developed in routine horse serum-supplemented long-term culture medium, without any additional growth factor source, as the gel medium for our studies. We followed procedures developed for detecting anchorage-independent growth of transformed tumor cells.
Given their associated HSC activity, LT-CFCs are predicted to divide with asymmetric cell kinetics. We evaluated whether Xs would increase the frequency of LT-CFC type I colonies in soft agar. Freshly prepared bone marrow cells were plated in soft agar developed in either control medium or medium containing 1 mM or 3 mM Xs.

## C[S+](C)[O-] [DMSO]
Xs-D lines
  Effect on degree/induction of albumin expression: no noticeable effect

## O=c1[nH]cnc2nc[nH]c12 [Hx, hypoxanthine]
[1]
  Effectiveness as SACK agent compared with Xs: not as effective a SACK agent as Xs
[2]
  Effect on frequency of colony types in soft agar: increased the frequency of type II and III colonies at the expense of type I colonies
